We go through one molecule from patent US20220265685A1, “METHODS AND COMPOSITIONS FOR IMPROVING COGNITIVE FUNCTION” (priority 2010, published 2022).

Like-named read-outs stand apart in the source and are kept apart here.

For one data set, the system named is aged-impaired (AI) rats. Briefly: Radial Arm Maze (RAM) task, spatial memory retention of aged-impaired rats. It is filed as in vivo, Long-Evans rats. The procedure: FIG. 1 depicts the effects of administering levetiracetam on the spatial memory retention of ten aged-impaired rats (AI) in an eight-arm Radial Arm Maze (RAM) test. Six treatment conditions are employed: vehicle control, levetiracetam (1.25 mg/kg/day), levetiracetam (2.5 mg/kg/day), levetiracetam (5 mg/kg/day), levetiracetam (10 mg/kg/day) and levetiracetam (20 mg/kg/day). In the RAM task used, there is a one-hour delay between presentation of a subset of arms (5 arms available and 3 arms blocked) and completion of the eight-arm win-shift task (eight arms available). Rats are pre-treated 30-40 minutes before daily trials with a one-time drug/control treatment. The number of errors made by the rats during the retention phase is used as a measure of spatial memory retention. Errors are defined as instances when rats enter an arm from which food has already been retrieved in the pre-delay component of the trial or when rats re-visit an arm in the post-delay session that had already been visited. Paired t-tests are used to compare the number of errors between different doses of levetiracetam and vehicle control.
FIG. 2 depicts the effects of administering donepezil only and administering a combination of donepezil and levetiracetam on the spatial memory retention of eight aged-impaired rats (AI) in an eight-arm Radial Arm Maze (RAM) test. Four treatment conditions are employed: vehicle control, donepezil only (1 mg/kg/day), donepezil (2 mg/kg/day), and a combination of donepezil (1 mg/kg/day) and levetiracetam (2.5 mg/kg/day). In the RAM task used, there is a two-hour delay between presentation of a subset of arms (5 arms available and 3 arms blocked) and completion of the eight-arm win-shift task (eight arms available). Rats are pre-treated 30-40 minutes before daily trials with a one-time drug/control treatment. The number of errors made by the rats during the retention phase is used as a measure of spatial memory retention. Errors are defined as instances when rats enter an arm from which food has already been retrieved in the pre-delay component of the trial or when rats re-visit an arm in the post-delay session that have already been visited. Paired t-tests are used to compare the number of errors between different doses of drug treatment and vehicle control.
Aged, male Long-Evans rats were obtained at 8 to 9 months of age from Charles River Laboratories (Raleigh, N.C.) and housed in a vivarium until 24 to 26 months of age. All rats were individually housed at 25° C. and maintained on a 12 h light/dark cycle. Food and water were provided ad libitum unless noted otherwise. The rats were examined for health and pathogen-free status throughout the experiments, as well as necropsies at the time of killing.
All rats were screened in a standardized assessment of spatial cognition. This background assessment used the above-described well-established MWM protocol. […] The selected AI rats were tested for their memory of new spatial information in a Radial Arm Maze (RAM) task, under different drug/control treatment conditions: vehicle control, donepezil only, levetiracetam only, and a combination of donepezil and levetiracetam. The RAM task also extended the behavioral assessment to spatial memory using appetitive motivation. We used a protocol that allowed within-subject assessment across drugs at different doses and in combinations (Koh et al., Neuropsychopharmacology, epub. 1-10, (2009)).
The radial maze consisted of eight arms projecting from each side of an octagonal center platform, with food well located at the distal end of each arm. Plexiglasm blocks could be positioned to prevent entry into any arm. Extra-maze cues were provided in the room surrounding the maze and illumination was provided by an overhead light.

A further data set deals with aMCI subjects. Briefly: neuropsychological assessment (common cognitive tests). To be noted: levetiracetam 125 mg twice a day for two weeks. It is filed as in vivo, human. The procedure:
A within-subjects trial of 8 weeks duration, involving 17 amnestic MCI (aMCI) subjects and 17 age-matched controls with a low dose treatment of levetiracetam is conducted. During the course of the study, each aMCI subject receives both drug and placebo treatments separately in two periods of two weeks each, with the order of treatments among different aMCI subjects counterbalanced (see FIG. 3). Age-matched control subjects treated with placebo serve as a further control. Cognitive testing and fMRI imaging data are obtained from the subjects after each two week period of drug/placebo treatment.
All participants undergo neuropsychological evaluation at the time of assessment for treatment efficacy (Visits 1 and 2), as well as at the Baseline Visit.
The evaluation occurs outside of the scanner and includes the Buschke Selective Reminding Test (Buschke and Fuld, 1974) and the Verbal Paired Associates subtest, the Logical Memory subtest, the Visual Reproduction subtest of the Wechsler Memory Scale-Revised (WMS-R) (Wechsler, 1997), and the Benton Visual Retention Test, as these tasks are particularly sensitive to medial temporal lobe function and early memory problems (Marquis et al., 2002 and Masur et al., 1994). Additionally, subjects are asked to complete tests of more general cognitive function such as tests to assess general mental status, executive function, attention and general naming ability. All neuropsychological tests are administered by a trained research assistant during a 60-minute session. As the three neuropsychological assessments in this study occur within a time period of 8 weeks, different versions of the neuropsychological tests are used to minimize test specific practice effects. Breaks are provided to the subject as needed.
As described above, the drug treatment period is the two weeks preceding Visit 1 or 2 (with the two week period preceding the other Visit being the placebo phase). For the subjects receiving the drug treatment, half a scored 250 mg tablet of levetiracetam is used to achieve a dose of […], which is approximately 3.6 mg/kg/day (assuming an average adult human weight of 70 kg).

For data set [1] the following is noted: cited from earlier work.
Data set [2] has as its target synaptic vesicle protein 2A (SV2A) (Homo sapiens, UniProt Q7L0J3). As to conditions: Noyer et al. 1995; Fuks et al. 2003; Lynch et al. 2004; Gillard et al. 2006; cited from earlier work.

Chain of synaptic vesicle protein 2A (SV2A) (Q7L0J3 whole entry, species assumed): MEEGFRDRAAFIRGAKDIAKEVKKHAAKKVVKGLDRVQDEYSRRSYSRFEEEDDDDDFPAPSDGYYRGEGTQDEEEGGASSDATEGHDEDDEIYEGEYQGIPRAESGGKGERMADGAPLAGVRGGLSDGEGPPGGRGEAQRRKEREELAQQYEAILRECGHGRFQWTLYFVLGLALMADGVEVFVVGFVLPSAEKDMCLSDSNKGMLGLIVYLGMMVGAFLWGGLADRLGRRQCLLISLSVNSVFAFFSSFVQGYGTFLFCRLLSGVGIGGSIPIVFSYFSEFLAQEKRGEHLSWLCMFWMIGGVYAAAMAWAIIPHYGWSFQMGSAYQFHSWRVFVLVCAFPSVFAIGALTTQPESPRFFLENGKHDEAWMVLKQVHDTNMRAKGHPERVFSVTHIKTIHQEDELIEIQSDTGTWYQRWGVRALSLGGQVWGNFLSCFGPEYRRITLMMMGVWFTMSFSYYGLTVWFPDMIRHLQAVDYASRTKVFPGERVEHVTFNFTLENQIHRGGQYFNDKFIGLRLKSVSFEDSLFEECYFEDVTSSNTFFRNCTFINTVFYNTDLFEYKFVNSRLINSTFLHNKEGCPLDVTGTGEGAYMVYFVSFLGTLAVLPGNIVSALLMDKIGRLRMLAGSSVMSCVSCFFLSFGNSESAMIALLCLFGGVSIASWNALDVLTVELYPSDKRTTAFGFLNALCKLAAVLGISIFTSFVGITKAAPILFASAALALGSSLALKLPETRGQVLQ

In the case of `CC[C@@H](C(N)=O)N1CCCC1=O` [levetiracetam, (2S)-2-(2-oxopyrrolidin-1-yl) butanamide], the “effective doses of levetiracetam used in the animal model” value in the data set with aged-impaired (AI) rats (AI rats, given acutely) is 5 to 10 mg/kg. The “memory performance in AI rats” value with aged-impaired (AI) rats (levetiracetam 2.5 mg/kg/day individually, in the absence of donepezil) was “does not significantly improve memory performance”. Also, the “average no. of errors ± standard error of the mean (SEM), retention test” value in the data set with aged-impaired (AI) rats (levetiracetam 5 mg/kg/day i.p., one-hour delay RAM, AI rats n=10, vehicle control 2.00±0.42) is reported as 0.75±0.32. Moreover, in the data set with aged-impaired (AI) rats (levetiracetam 5 mg/kg/day, one-hour delay RAM, t(9)=2.18, p=0.057), the “memory performance relative to vehicle control treatment” value was “significantly improves memory performance”. For the same molecule, in the data set on aged-impaired (AI) rats (levetiracetam 10 mg/kg/day i.p., one-hour delay RAM, AI rats n=10, vehicle control 2.00±0.42), the “average no. of errors ± SEM, retention test” value was 0.80±0.27. In addition, in the data set on aged-impaired (AI) rats (levetiracetam 10 mg/kg/day, one-hour delay RAM, t(9)=2.37, p=0.042), the “memory performance relative to vehicle control treatment” value is on record as “significantly improves memory performance”. Further, the “performance of AI rats in the radial maze task” value in the data set with aged-impaired (AI) rats (levetiracetam 20 mg/kg) is “fails to improve the performance”. For the same molecule, in the data set on aMCI subjects, the “performance in Benton Visual Retention Test” value was “fail to rescue performance”, the “performance in Buschke Selective Reminding Test—Delayed Recall” value was “fail to rescue performance”, the “performance in Verbal Paired Associates Test—Delayed Recall” value was “fail to rescue performance” and the “performance in Verbal Paired Associates Test—Recognition” value is listed as “fail to rescue performance”. In data set [1] (after oral administration), the absorption entry is “rapidly and almost completely absorbed”. In addition, in data set [1] (expected in elderly due to decreased renal function), the plasma half-life is 9 to 10 h. In data set [1] (following oral administration), the “time of peak plasma concentrations” value is reported as “about 1 hour”. Moreover, the plasma half-life entry in data set [1] (in vivo) was “approximately 7±1 hour”. In addition, the “time to steady state” value in data set [1] (multiple twice-daily dosing) was 2 days. The “bioavailability, effect of food” value in data set [1] (oral) was “not affected by food”. Besides, the “binding to SV2A” value in data set [2] is listed as “binds to a specific site in the CNS: the synaptic vesicle protein 2A (SV2A)”.
